In ChEMBL document CHEMBL1126383, “P-3A and ()-desacetamido P-3A: demonstration and Study of their effective functional cleavage of duplex DNA” (Bioorg Med Chem Lett, 1992):
Active and inactive are the calls of the source. The calls are words filed in the database; no cut-off is given here.

Key:
Format in all cases: functional
[1] = tested on: Nucleic Acid; assay: Relative efficiency of supercoiled phi X174 DNA cleavage was determined; 4-10
[2] = tested on: Nucleic Acid; assay: Relative efficiency of supercoiled phi X174 DNA cleavage was determined
[3] = tested on: Nucleic Acid; assay: DNA cleavage selectivity selected within singly 5' -end labeled w794 DNA was determined; N - None
[4] = tested on: Nucleic Acid; assay: Relative efficiency of supercoiled phi X174 DNA cleavage was determined; 0.33-0.2
[5] = tested on: Nucleic Acid; assay: Relative efficiency of supercoiled phi X174 DNA cleavage was determined; 1.25-2

## Cc1c(N)nc([C@H](CC(N)=O)NC[C@H](N)C(N)=O)nc1C(=O)N[C@H](C(=O)N[C@H](C)[C@@H](O)[C@H](C)C(=O)N[C@H](C(=O)NCCc1nc(-c2nc(C(=O)NCCC[S+](C)C)cs2)cs1)[C@@H](C)O)[C@@H](O[C@@H]1O[C@@H](CO)[C@@H](O)[C@H](O)[C@@H]1O[C@H]1O[C@H](CO)[C@@H](O)[C@H](OC(N)=O)[C@@H]1O)c1c[nH]cn1
[1]
  Relative efficiency: 4

## C[C@H](NC(=O)C(Cc1c[nH]cn1)NC(=O)c1cc(N)nc(C(CC(N)=O)NC[C@H](N)C(N)=O)n1)C(=O)O (stereo partly specified)
[2]
  Relative efficiency: 1
[3]
  Selectivity: inactive

## C[C@H](NC(=O)C(Cc1c[nH]cn1)NC(=O)c1cc(N)nc(CNC[C@H](N)C(N)=O)n1)C(=O)O (stereo partly specified)
[4]
  Relative efficiency: 0.2
[3]
  Selectivity: inactive

## Cc1c(N)nc(C(CC(N)=O)NC[C@H](N)C(N)=O)nc1C(=O)NC(C(=O)NC(C)C(O)[C@H](C)C(=O)NC(C(=O)NCCc1nc(-c2nc(C(=O)NCCC[S+](C)C)cs2)cs1)C(C)O)C(O)c1c[nH]cn1 (stereo partly specified)
[5]
  Relative efficiency: 1.25
